Results from ChEMBL document CHEMBL1145433, “Nuttingins A-F and malonganenones D-H, tetraprenylated alkaloids from the Tanzanian gorgonian Euplexaura nuttingi” (2007).
Active and inactive are the calls of the source. The rule behind the calls is not given here.

Assays:
HEK293 = assay: Induction of apoptosis in 293 cells at 1.25 ug/mL; type: functional, cell-based; details: Homo sapiens
K562 [1] = assay: Growth inhibition of human K562 cells at 0.4 ug/mL after 48 hrs by MTT assay; type: functional; details: K562, 48 h
UT7 [2] = assay: Growth inhibition of human UT7 cells at 0.4 ug/mL after 48 hrs by MTT assay; type: functional; details: UT7, 48 h
UT7 [3] = assay: Growth inhibition of human UT7 cells by MTT assay; type: functional, cell-based
K562 [4] = assay: Growth inhibition of human K562 cells by MTT assay; type: functional, cell-based

| SMILES | Activity (HEK293) | inhibition at 0.4 µg/mL (K562 [1]) | inhibition at 0.4 µg/mL (UT7 [2]) | Activity (UT7 [3]) | Activity (K562 [4]) |
| --- | --- | --- | --- | --- | --- |
| C/C(=C/C(=O)CC(C)C)CCC/C(C)=C/CC/C(C)=C/Cn1cnc2c1c(=O)n(C)c(=O)n2C | Active | – | – | – | – |
| C/C(=C\CC/C(C)=C/Cn1cnc2c1c(=O)n(C)c(=O)n2C)CC/C=C(\C)CC(=O)CC(C)C | Active | – | – | – | – |
| C/C(=C\CC/C(C)=C/Cn1cnc2c1c(=O)ncn2C)CC/C=C(\C)CC(=O)CC(C)C | Active | – | – | – | – |
| C/C(=C\CNC=O)CC/C=C(\C)CCC/C(C)=C/C(=O)CC(C)C | Active | – | – | – | – |
| C/C(=C\Cn1cnc2c1c(=O)ncn2C)CC/C=C(\C)CCC/C(C)=C/C(=O)CC(C)C | Active | – | – | – | – |
| CNC(=O)c1c(N(C)C=O)ncn1C/C=C(\C)CC/C=C(\C)CC/C=C(\C)CC(=O)CC(C)C | Active | – | – | – | – |
| CNC(=O)c1c(N(C)C=O)ncn1C/C=C(\C)CC/C=C(\C)CCC/C(C)=C/C(=O)CC(C)C | Active | – | – | – | – |
| C/C(=C/C(=O)CC(C)C)CCC/C(C)=C/CC/C(C)=C/Cn1cnc2c1C(=O)N(C)CN2C [NUTTIGIN E] | Active | 30% | 50% | – | – |
| C/C(=C\CC/C(C)=C/Cn1cnc2c1C(=O)N(C)CN2C)CC/C=C(\C)CC(=O)CC(C)C [NUTTINGIN C] | Active | 30% | 50% | Dose-dependent effect | Dose-dependent effect |
| C/C(=C\Cn1cnc2c1C(=O)N(C)CN2C)CC/C=C(\C)CCC/C(C)=C/C(=O)CC(C)C [NUTTINGIN D] | Active | 30% | 50% | Dose-dependent effect | Dose-dependent effect |
